Measured values as given in ChEMBL document CHEMBL1201862, “PubChem BioAssay data set” (2004).
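Step 1: Grow cells in 96-well plates. Step 2: Expose to compound for 48 hours at 5 concentrations. Step 3: Interpolate endpoints linearly; if unreached, use highest concentration. Here, GI50 denotes the concentration required for 50% inhibition of growth.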 The source made the active and inactive calls. Cut-off read from the data, not from the text of the source: active = GI50 up to about 1.1 µM and inactive = higher.

Key:
Experiment in all cases: NCI tumour cell line growth inhibition, 48 h
A498 = tested on: A498
SF-539 = tested on: SF-539
SK-MEL-28 = tested on: SK-MEL-28
HOP-92 = tested on: HOP-92
SW-620 = tested on: SW-620
SK-MEL-5 = tested on: SK-MEL-5
K562 = tested on: K562
A549 = tested on: A549
U-251 = tested on: U-251
M14 = tested on: M14
HOP-62 = tested on: HOP-62
OVCAR-4 = tested on: OVCAR-4
IGROV-1 = tested on: IGROV-1
786-0 = tested on: 786-0
SK-MEL-2 = tested on: SK-MEL-2
CCRF-CEM = tested on: CCRF-CEM
UACC-62 = tested on: UACC-62
HCC 2998 = tested on: HCC 2998
HL-60 = tested on: HL-60
SF-268 = tested on: SF-268

Measured: GI50

O=C(Nc1ccc(Cl)cc1C(=O)O)c1ccc([N+](=O)[O-])cc1
inactive: A498 9.77 µM | SF-539 14.5 µM | SK-MEL-28 28.2 µM | HOP-92 8.18 µM | SW-620 29.7 µM | SK-MEL-5 20.3 µM | K562 20.8 µM | A549 33.7 µM | U-251 18.8 µM | M14 24.3 µM | HOP-62 10.2 µM | OVCAR-4 18.6 µM | IGROV-1 17.4 µM | 786-0 13.4 µM | SK-MEL-2 3.72 µM | CCRF-CEM 20.2 µM | UACC-62 14.5 µM | HCC 2998 11.2 µM | HL-60 22.4 µM | SF-268 20.2 µM

O=C(/C=c1\oc(=O)/c(=C/C(=O)c2ccc(Cl)cc2)oc1=O)c1ccc(Cl)cc1
inactive: A498 > 100 µM | SF-539 > 100 µM | SK-MEL-28 > 100 µM | HOP-92 43.1 µM | SK-MEL-5 > 100 µM | K562 > 100 µM | A549 > 100 µM | U-251 > 100 µM | M14 > 100 µM | HOP-62 > 100 µM | OVCAR-4 39.6 µM | IGROV-1 63.4 µM | 786-0 > 100 µM | SK-MEL-2 > 100 µM | CCRF-CEM 39.4 µM | UACC-62 > 100 µM | HCC 2998 > 100 µM | HL-60 > 100 µM | SF-268 97.3 µM

O=C1C=C(Cl)C(=O)C(c2ccc(Cl)cc2)=C1
inactive: A498 23.8 µM | SF-539 16.9 µM | SK-MEL-28 20.2 µM | HOP-92 19.3 µM | SW-620 25.5 µM | SK-MEL-5 16.5 µM | K562 4.19 µM | A549 46.6 µM | U-251 15.2 µM | M14 17 µM | HOP-62 21.1 µM | OVCAR-4 17.7 µM | IGROV-1 15 µM | 786-0 22.1 µM | SK-MEL-2 18.6 µM | CCRF-CEM 3.35 µM | UACC-62 17.4 µM | HCC 2998 18.1 µM | HL-60 18.8 µM | SF-268 19.7 µM

O=C(/C=C/c1c(O)ccc2ccccc12)c1ccccc1
inactive: A498 > 100 µM | SF-539 > 100 µM | SK-MEL-28 > 100 µM | HOP-92 > 100 µM | SW-620 22.5 µM | SK-MEL-5 > 100 µM | K562 58.5 µM | A549 > 100 µM | U-251 > 100 µM | M14 > 100 µM | HOP-62 > 100 µM | OVCAR-4 > 100 µM | IGROV-1 > 100 µM | 786-0 63.5 µM | SK-MEL-2 > 100 µM | CCRF-CEM 35.6 µM | UACC-62 > 100 µM | HCC 2998 > 100 µM | HL-60 35.7 µM | SF-268 > 100 µM

CN(CCNC(=O)c1nn(-c2ccc(Cl)cc2Cl)c2c1Cc1ccccc1-2)CCNC(=O)c1nn(-c2ccc(Cl)cc2Cl)c2c1Cc1ccccc1-2
inactive: A498 5.14 µM | SF-539 1.85 µM | SK-MEL-28 1.97 µM | HOP-92 1.99 µM | SW-620 1.86 µM | SK-MEL-5 1.74 µM | K562 1.57 µM | A549 3.29 µM | U-251 2.49 µM | M14 1.81 µM | HOP-62 5.21 µM | OVCAR-4 2.1 µM | IGROV-1 4.53 µM | 786-0 2.16 µM | SK-MEL-2 2.05 µM | CCRF-CEM 2.27 µM | UACC-62 1.85 µM | HCC 2998 1.75 µM | HL-60 1.55 µM | SF-268 12.1 µM

COc1ccc(C2=Nc3ccccc3NC(=O)C2)cc1
inactive: A498 45.2 µM | SF-539 29.4 µM | SK-MEL-28 > 100 µM | HOP-92 21 µM | SW-620 16.7 µM | SK-MEL-5 > 100 µM | K562 > 100 µM | A549 77.6 µM | U-251 28 µM | M14 > 100 µM | HOP-62 22.5 µM | OVCAR-4 > 100 µM | IGROV-1 34.6 µM | 786-0 33.3 µM | SK-MEL-2 51.5 µM | CCRF-CEM 41.9 µM | UACC-62 > 100 µM | HCC 2998 > 100 µM | HL-60 21.8 µM | SF-268 23.4 µM

c1ccc2c3c(ccc2c1)CSCc1ccc2ccccc2c1-3
inactive: A498 > 100 µM | SF-539 54.1 µM | SK-MEL-28 > 100 µM | HOP-92 22.2 µM | SK-MEL-5 > 100 µM | K562 > 100 µM | A549 > 100 µM | U-251 > 100 µM | M14 > 100 µM | HOP-62 > 100 µM | OVCAR-4 26.8 µM | IGROV-1 > 100 µM | 786-0 > 100 µM | SK-MEL-2 > 100 µM | CCRF-CEM > 100 µM | UACC-62 > 100 µM | HCC 2998 > 100 µM | HL-60 > 10 µM | SF-268 > 100 µM

CCOC(=O)c1ncn(CCc2ccc(Cl)cc2)c1C
inactive: A498 > 100 µM | SF-539 > 100 µM | SK-MEL-28 > 100 µM | HOP-92 > 100 µM | SW-620 > 100 µM | SK-MEL-5 85.9 µM | K562 > 100 µM | A549 > 100 µM | U-251 > 100 µM | M14 26.3 µM | HOP-62 > 100 µM | OVCAR-4 56.6 µM | IGROV-1 > 100 µM | 786-0 > 100 µM | SK-MEL-2 > 100 µM | CCRF-CEM > 100 µM | UACC-62 42.4 µM | HCC 2998 > 100 µM | HL-60 > 100 µM | SF-268 92.9 µM

CCOC(=O)/C=C(/C(=O)OCC)n1ccc(=O)[nH]c1=O
inactive: A498 20.6 µM | SF-539 18.9 µM | SK-MEL-28 6.56 µM | HOP-92 2.07 µM | SW-620 1.86 µM | SK-MEL-5 15.3 µM | K562 2.23 µM | A549 18 µM | U-251 13.5 µM | M14 3.83 µM | HOP-62 19.6 µM | OVCAR-4 8.61 µM | IGROV-1 15.2 µM | 786-0 3.36 µM | SK-MEL-2 15.8 µM | CCRF-CEM 1.14 µM | UACC-62 11.8 µM | HCC 2998 16.5 µM | HL-60 1.78 µM | SF-268 15.6 µM

CC(NNC(=O)c1cc[n+]([BH2-]C#N)cc1)c1ccccc1 (configuration not stated)
inactive: A498 > 100 µM | SF-539 > 100 µM | SK-MEL-28 > 100 µM | HOP-92 > 100 µM | SW-620 > 100 µM | SK-MEL-5 > 100 µM | K562 > 100 µM | A549 > 100 µM | U-251 > 100 µM | M14 > 100 µM | HOP-62 > 100 µM | OVCAR-4 > 100 µM | IGROV-1 > 100 µM | 786-0 > 100 µM | SK-MEL-2 > 100 µM | CCRF-CEM > 100 µM | UACC-62 > 100 µM | HCC 2998 > 100 µM | HL-60 > 100 µM | SF-268 > 100 µM

Nc1c(-c2nc3ccccc3s2)[n+]([O-])c2ccccc2[n+]1[O-]
inactive: A498 33.2 µM | SF-539 29.9 µM | SK-MEL-28 25.2 µM | HOP-92 23.1 µM | SW-620 43.5 µM | SK-MEL-5 17 µM | K562 45.8 µM | A549 36.4 µM | U-251 38.9 µM | M14 29.6 µM | HOP-62 22.5 µM | OVCAR-4 42.1 µM | IGROV-1 29.9 µM | 786-0 32.1 µM | SK-MEL-2 29.1 µM | CCRF-CEM 42.6 µM | UACC-62 33.8 µM | HCC 2998 38.1 µM | HL-60 29.9 µM | SF-268 26.9 µM

O=C(O)CCC1CCc2cccc3occ1c23 (configuration not stated)
inactive: A498 > 100 µM | SF-539 > 100 µM | SK-MEL-28 > 100 µM | HOP-92 > 100 µM | SW-620 > 100 µM | SK-MEL-5 > 100 µM | K562 > 100 µM | A549 > 100 µM | U-251 > 100 µM | M14 > 100 µM | HOP-62 > 100 µM | OVCAR-4 > 100 µM | IGROV-1 > 100 µM | 786-0 > 100 µM | SK-MEL-2 > 100 µM | CCRF-CEM > 100 µM | UACC-62 > 100 µM | HCC 2998 > 100 µM | HL-60 > 100 µM | SF-268 > 100 µM

C=C(CN(C)C)C1(c2ccccc2)CC2(CCCC2)C(=O)O1 (configuration not stated)
inactive: A498 > 100 µM | SF-539 > 100 µM | SK-MEL-28 > 100 µM | HOP-92 17.9 µM | SW-620 > 100 µM | SK-MEL-5 > 100 µM | K562 30.2 µM | A549 > 100 µM | U-251 > 100 µM | M14 66.5 µM | HOP-62 > 100 µM | OVCAR-4 > 100 µM | IGROV-1 > 100 µM | 786-0 66.5 µM | SK-MEL-2 > 100 µM | CCRF-CEM 20.6 µM | UACC-62 > 100 µM | HCC 2998 > 100 µM | HL-60 23.7 µM | SF-268 > 100 µM

CCOP(=O)(OCC)C1C(CO)OC(n2ccc(=O)[nH]c2=O)C1O (configuration not stated)
inactive: A498 > 100 µM | SF-539 > 100 µM | SK-MEL-28 > 100 µM | HOP-92 > 100 µM | SW-620 > 100 µM | SK-MEL-5 > 100 µM | K562 > 100 µM | A549 > 100 µM | M14 > 100 µM | HOP-62 > 100 µM | OVCAR-4 74.5 µM | IGROV-1 > 100 µM | 786-0 > 100 µM | SK-MEL-2 > 100 µM | CCRF-CEM > 10 µM | UACC-62 > 100 µM | HCC 2998 78.7 µM | HL-60 > 100 µM | SF-268 > 100 µM
